Common to all, as to assay type: biochemical
The target of one assay is ROCK I (Homo sapiens, UniProt Q13464). Description: ROCK-I inhibition assay (radioactive enzyme assay, MBP substrate). Particulars: enzyme inhibition, Ki(app), Table 5. The method, then: Compounds were screened for their ability to inhibit ROCK using a standard radioactive enzyme assay. Assays were carried out in a solution containing 100 mM HEPES (pH 7.5), 10 mM MgCl2, 25 mM NaCl, 2 mM DTT, and 1.5% DMSO. Final substrate concentrations in the assay were 13 μM [γ-^33P] ATP (25 mCi ^33P ATP/mmol ATP, Perkin Elmer, Cambridge, Mass./Sigma Chemicals, St Louis, Mo.) and 27 μM Myelin Basic Protein (MBP). Final enzyme concentration in the assay was 5 nM ROCK. Assays were carried out at room temperature. 1.5 μl of DMSO stock containing serial dilutions of the compound of the present invention (concentrations ranging from 10 μM to 2.6 nM) was placed in a 96 well plate. 50 μl of Solution 1 (100 mM HEPES (pH 7.5), 10 mM MgCl2, […]) was added to the plate. The reaction was initiated by addition of 50 μl of Solution 2 (100 mM HEPES (pH 7.5), 10 mM MgCl2, 4 mM DTT, […] and 10 nM ROCK). After 2 hours the reaction was quenched with 50 μL of 30% trichloroacetic acid (TCA, Fisher) containing 9 mM ATP. Transfer of 140 μL of the quenched reaction to a glass fiber filter plate (Corning, Cat. No. 3511) was followed by washing 3 times with 5% TCA. 50 μl of Optima Gold scintillation fluid (Perkin Elmer) was added and the plates were counted on a Top Count (Perkin Elmer). After removing mean background values for all of the data points the data was fit using Prism software to obtain a Ki(app).
Sequence of ROCK I (Q13464 whole entry): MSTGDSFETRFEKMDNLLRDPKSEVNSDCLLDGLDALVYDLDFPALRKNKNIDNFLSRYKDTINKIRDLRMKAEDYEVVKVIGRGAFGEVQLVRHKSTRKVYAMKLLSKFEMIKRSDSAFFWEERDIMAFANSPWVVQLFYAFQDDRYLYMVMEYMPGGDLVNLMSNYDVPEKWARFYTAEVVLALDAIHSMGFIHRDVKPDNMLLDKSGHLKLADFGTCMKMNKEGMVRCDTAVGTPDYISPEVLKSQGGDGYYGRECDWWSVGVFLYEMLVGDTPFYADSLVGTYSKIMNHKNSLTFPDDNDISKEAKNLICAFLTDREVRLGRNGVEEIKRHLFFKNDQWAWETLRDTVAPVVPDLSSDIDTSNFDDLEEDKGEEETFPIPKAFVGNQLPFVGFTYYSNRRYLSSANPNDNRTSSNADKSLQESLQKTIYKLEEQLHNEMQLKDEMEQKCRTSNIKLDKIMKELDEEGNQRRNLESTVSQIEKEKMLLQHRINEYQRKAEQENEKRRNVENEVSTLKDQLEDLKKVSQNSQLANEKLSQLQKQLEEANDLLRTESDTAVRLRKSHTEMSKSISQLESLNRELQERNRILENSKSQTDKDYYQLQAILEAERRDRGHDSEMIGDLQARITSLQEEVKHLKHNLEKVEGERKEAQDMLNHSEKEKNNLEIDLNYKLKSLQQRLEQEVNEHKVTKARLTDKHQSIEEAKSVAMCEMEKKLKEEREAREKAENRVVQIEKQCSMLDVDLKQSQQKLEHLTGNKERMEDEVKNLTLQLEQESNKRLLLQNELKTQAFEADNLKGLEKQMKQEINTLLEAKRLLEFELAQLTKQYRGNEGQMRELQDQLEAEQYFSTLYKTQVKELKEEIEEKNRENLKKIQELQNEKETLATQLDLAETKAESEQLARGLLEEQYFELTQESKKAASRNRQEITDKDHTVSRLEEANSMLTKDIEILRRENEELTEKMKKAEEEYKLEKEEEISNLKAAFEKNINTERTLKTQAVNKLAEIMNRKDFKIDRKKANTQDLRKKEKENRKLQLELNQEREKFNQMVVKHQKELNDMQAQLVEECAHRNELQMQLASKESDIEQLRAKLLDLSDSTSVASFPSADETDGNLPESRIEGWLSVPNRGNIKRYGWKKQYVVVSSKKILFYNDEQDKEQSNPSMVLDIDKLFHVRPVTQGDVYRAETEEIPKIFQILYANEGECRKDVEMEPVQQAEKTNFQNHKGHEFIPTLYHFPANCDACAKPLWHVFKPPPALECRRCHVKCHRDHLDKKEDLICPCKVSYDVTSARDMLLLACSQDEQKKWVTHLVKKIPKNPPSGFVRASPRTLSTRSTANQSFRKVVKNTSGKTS

The target in a further assay is JAK2 (Homo sapiens, UniProt O60674). Description: JAK2 inhibition assay (as Example 3 with JAK-2 enzyme). Particulars: enzyme inhibition, Table 5. The method, then: (§1) Compounds were screened for their ability to inhibit JAK using the assay shown below. Reactions were carried out in a kinase buffer containing 100 mM HEPES (pH 7.4), 1 mM DTT, 10 mM MgCl2, 25 mM NaCl, and 0.01% BSA.
Sequence of JAK2 (O60674 whole entry): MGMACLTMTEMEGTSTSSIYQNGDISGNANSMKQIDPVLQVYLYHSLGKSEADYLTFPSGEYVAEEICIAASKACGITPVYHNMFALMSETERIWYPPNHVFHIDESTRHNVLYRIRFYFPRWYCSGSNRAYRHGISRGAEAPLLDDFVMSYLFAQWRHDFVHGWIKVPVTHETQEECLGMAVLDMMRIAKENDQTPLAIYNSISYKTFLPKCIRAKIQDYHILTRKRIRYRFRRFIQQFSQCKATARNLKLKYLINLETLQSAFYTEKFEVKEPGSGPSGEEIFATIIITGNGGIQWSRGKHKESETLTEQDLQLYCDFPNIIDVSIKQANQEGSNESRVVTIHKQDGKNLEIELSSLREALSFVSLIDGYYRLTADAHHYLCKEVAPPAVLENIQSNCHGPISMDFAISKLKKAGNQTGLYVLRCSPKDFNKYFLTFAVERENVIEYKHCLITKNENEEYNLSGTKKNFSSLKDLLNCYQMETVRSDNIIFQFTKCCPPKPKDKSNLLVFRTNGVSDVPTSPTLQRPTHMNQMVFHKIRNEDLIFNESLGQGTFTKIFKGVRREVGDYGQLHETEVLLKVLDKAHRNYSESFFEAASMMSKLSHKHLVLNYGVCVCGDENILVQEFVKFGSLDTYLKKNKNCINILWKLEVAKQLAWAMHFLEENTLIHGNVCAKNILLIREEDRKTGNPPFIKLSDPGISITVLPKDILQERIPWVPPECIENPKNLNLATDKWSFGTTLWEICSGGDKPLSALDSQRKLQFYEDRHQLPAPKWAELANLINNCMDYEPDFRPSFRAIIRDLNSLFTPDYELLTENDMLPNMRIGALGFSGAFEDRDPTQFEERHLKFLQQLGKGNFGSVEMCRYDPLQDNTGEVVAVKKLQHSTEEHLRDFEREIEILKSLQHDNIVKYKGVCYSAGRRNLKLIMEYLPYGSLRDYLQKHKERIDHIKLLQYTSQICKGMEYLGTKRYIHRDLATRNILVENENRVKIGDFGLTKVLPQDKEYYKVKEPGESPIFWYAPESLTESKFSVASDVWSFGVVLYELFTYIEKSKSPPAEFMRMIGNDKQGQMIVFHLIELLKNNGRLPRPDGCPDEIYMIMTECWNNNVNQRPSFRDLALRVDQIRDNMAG
(§2) Substrate concentrations in the assay were 5 μM ATP (200 μCi/μmole ATP) and 1 μM poly(Glu)4Tyr. Reactions were carried out at 25° C. and 1 nM JAK3.
(§3) To each well of a 96 well polycarbonate plate was added 1.5 μl of a candidate JAK3 inhibitor along with 50/1 of kinase buffer containing 2 μM poly(Glu)4Tyr and 10 μM ATP. This was then mixed and 50 μl of kinase buffer containing 2 nM JAK3 enzyme was added to start the reaction. After 20 minutes at room temperature (25 C), the reaction was stopped with 50 μl of 20% trichloroacetic acid (TCA) that also contained 0.4 mM ATP. The entire contents of each well were then transferred to a 96 well glass fiber filter plate using a TomTek Cell Harvester. After washing, 60 μl of scintillation fluid was added and ^33P incorporation detected on a Perkin Elmer TopCount.
The assays were as described above in Example 3 except that JAK-2 enzyme was used, the final poly(Glu)4Tyr concentration was 15 μM, and final ATP concentration was 12 μM.

For the next assay, the target named is T1, JAK3 (Homo sapiens, UniProt P52333).
T1 sequence (P52333 1-1124): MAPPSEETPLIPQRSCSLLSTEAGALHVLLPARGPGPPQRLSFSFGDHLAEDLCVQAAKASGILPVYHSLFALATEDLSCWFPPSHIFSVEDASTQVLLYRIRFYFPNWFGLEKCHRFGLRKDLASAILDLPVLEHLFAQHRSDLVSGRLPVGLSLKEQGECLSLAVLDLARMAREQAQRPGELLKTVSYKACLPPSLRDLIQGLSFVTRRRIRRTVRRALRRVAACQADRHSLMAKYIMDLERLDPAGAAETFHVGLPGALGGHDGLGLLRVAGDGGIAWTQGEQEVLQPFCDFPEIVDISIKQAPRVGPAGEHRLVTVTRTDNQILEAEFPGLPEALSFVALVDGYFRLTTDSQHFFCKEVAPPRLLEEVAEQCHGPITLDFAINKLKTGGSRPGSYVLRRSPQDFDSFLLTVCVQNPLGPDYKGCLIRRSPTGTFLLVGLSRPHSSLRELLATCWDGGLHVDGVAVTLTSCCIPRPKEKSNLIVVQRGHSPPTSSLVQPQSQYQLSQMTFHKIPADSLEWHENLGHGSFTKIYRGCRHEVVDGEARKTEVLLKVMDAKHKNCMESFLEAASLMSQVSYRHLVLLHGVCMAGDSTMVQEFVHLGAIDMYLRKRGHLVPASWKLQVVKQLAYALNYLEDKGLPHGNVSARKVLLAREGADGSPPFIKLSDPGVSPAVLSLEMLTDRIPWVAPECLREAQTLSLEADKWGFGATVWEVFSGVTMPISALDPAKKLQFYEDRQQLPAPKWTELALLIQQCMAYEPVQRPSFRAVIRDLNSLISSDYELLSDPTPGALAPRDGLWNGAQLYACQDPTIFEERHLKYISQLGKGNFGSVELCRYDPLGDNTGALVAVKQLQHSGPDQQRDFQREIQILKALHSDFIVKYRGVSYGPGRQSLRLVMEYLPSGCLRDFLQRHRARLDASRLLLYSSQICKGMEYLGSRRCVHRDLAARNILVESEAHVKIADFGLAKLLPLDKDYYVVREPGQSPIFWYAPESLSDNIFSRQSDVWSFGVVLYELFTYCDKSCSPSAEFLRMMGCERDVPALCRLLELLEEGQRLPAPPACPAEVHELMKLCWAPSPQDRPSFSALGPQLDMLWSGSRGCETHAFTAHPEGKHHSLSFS
Description: JAK3 inhibition assay (33P incorporation into poly(Glu)4Tyr). Particulars: enzyme inhibition, Table 5. Here is the method:
as §1, §2, §3

Structures are written as SMILES. Some results are limits rather than exact numbers.

`c1cc(NCC2COc3ccccc3O2)nc(-c2ccnc3[nH]ccc23)c1` (stereo not drawn) [compound 58, N-((2,3-Dihydrobenzo[b][1,4]dioxin-2-yl)methyl)-6-(1H-pyrrolo[2,3-b]pyridin-4-yl)pyridin-2-amine]: the Ki at ROCK I, at JAK2 and on JAK3 was 500 to 5000 nM in each case.
`CC(C)C[C@@H](CO)Nc1cccc(-c2ccnc3[nH]ccc23)n1` [compound 59, (S)-2-(6-(1H-Pyrrolo[2,3-b]pyridin-4-yl)pyridin-2-ylamino)-4-methylpentan-1-ol]: the Ki is 500 to 5000 nM at ROCK I, greater than 5000 nM on JAK2 and greater than 5000 nM on JAK3.
Turning to `c1cc(NCc2ccc3c(c2)OCO3)nc(-c2ccnc3[nH]ccc23)c1` [compound 60, N-((Benzo[d][1,3]dioxol-6-yl)methyl)-6-(1H-pyrrolo[2,3-b]pyridin-4-yl)pyridin-2-amine], the Ki at ROCK I, on JAK2 and on JAK3 was 500 to 5000 nM throughout.
In the case of `CC(C)N(C)c1cccc(-c2ccnc3[nH]ccc23)n1` [compound 61, N-Isopropyl-N-methyl-6-(1H-pyrrolo[2,3-b]pyridin-4-yl)pyridin-2-amine], the Ki at ROCK I was 500 to 5000 nM; on JAK2, less than 500 nM; at JAK3, 500 to 5000 nM.
`COCc1cccc(-c2ccnc3[nH]ccc23)c1` [compound 62, 4-(3-Methoxymethyl-phenyl)-1H-pyrrolo[2,3-b]pyridine]: the Ki at ROCK I, on JAK2 and on JAK3 was less than 500 nM throughout.
As for `N#CCc1cccc(-c2ccnc3[nH]ccc23)c1` [compound 63, [3-(1H-Pyrrolo[2,3-b]pyridin-4-yl)-phenyl]-acetonitrile], the Ki at ROCK I, at JAK2 and at JAK3 was less than 500 nM in each case.
Consider `CC(=O)N1CC=C(c2ccnc3[nH]ccc23)CC1` [compound 64], for which the Ki on ROCK I, on JAK2 and on JAK3 was 500 to 5000 nM each time.
With `O=C(CC(F)(F)F)N1CC=C(c2ccnc3[nH]ccc23)CC1` [compound 65], the Ki is less than 500 nM on ROCK I, less than 500 nM on JAK2 and 500 to 5000 nM on JAK3.
With `N#CCC(=O)N1CC=C(c2ccnc3[nH]ccc23)CC1` [compound 66], the Ki on ROCK I is less than 500 nM; at JAK2, less than 500 nM; on JAK3, 500 to 5000 nM.
Consider `C=C(c1c(Cl)cnc2[nH]ccc12)C1CCCC1` [compound 67], for which the Ki on ROCK I was 500 to 5000 nM; on JAK2 it was less than 500 nM; at JAK3 it was less than 500 nM.
With `CC1CCCC=C1c1c(Cl)cnc2[nH]ccc12` (stereo not drawn) [compound 68], the Ki is 500 to 5000 nM at ROCK I, 500 to 5000 nM on JAK2 and less than 500 nM at JAK3.
With `C=C(c1c(Cl)cnc2[nH]ccc12)C1CCCCC1` [compound 69], the Ki on ROCK I was 500 to 5000 nM; at JAK2 it was 500 to 5000 nM; on JAK3, less than 500 nM.
Turning to `Cn1cc(-c2c(Cl)cnc3[nH]ccc23)cn1` [compound 70, 5-Chloro-4-(1-methyl-1H-pyrazol-4-yl)-1H-pyrrolo[2,3b]pyridine], the results for the Ki on ROCK I, at JAK2 and on JAK3 were 500 to 5000 nM, less than 500 nM and less than 500 nM, respectively.
Turning to `CC(C)(C#N)c1cccc(-c2ccnc3[nH]ccc23)n1` [compound 71, 2-(6-(1H-pyrrolo[2,3-b]pyridin-4-yl)pyridin-2-yl)-2-methylpropanetrile], the Ki at ROCK I, at JAK2 and on JAK3 was less than 500 nM throughout.
On to `CCC(C)CNc1cccc(-c2ccnc3[nH]ccc23)n1` (stereo not drawn) [compound 72, N-(2-Methylbutyl)-6-(1H-pyrrolo[2,3-b]pyridin-4-yl)pyridin-2-amine], for which the figures for the Ki on ROCK I, on JAK2 and at JAK3 were 500 to 5000 nM, less than 500 nM and 500 to 5000 nM, respectively.
As to `COc1cccc(CNc2cccc(-c3ccnc4[nH]ccc34)n2)c1` [compound 73, N-(3-Methoxybenzyl)-6-(1H-pyrrolo[2,3-b]pyridin-4-yl)pyridin-2-anine], the Ki at ROCK I, at JAK2 and on JAK3 was 500 to 5000 nM each time.
For `Cc1cccnc1-c1ccnc2[nH]ccc12` [compound 74, 4-(3-methylpyridin-2-yl)-1H-pyrrolo[2,3b]pyridine], the Ki was 500 to 5000 nM on ROCK I, greater than 5000 nM on JAK2 and 500 to 5000 nM at JAK3.
As for `Clc1ccccc1CCNc1cccc(-c2c(Cl)cnc3[nH]ccc23)n1` [compound 75, N-(2-Chlorophenethyl)-6-(5-chloro-1H-pyrrolo[2,3-b]pyridin-4-yl)pyridin-1-amine], the Ki on ROCK I, at JAK2 and on JAK3 was 500 to 5000 nM in each case.
For `CC(=O)N1CCCN(c2cccc(-c3c(Cl)cnc4[nH]ccc34)n2)CC1` [compound 76, 1-(4-(6-(5-Chloro-1H-pyrrolo[2,3-b]pyridin-4-yl)pyridin-2-yl)-1,4-diazepan-1-yl)ethanone], the values for the Ki on ROCK I, on JAK2 and on JAK3 were 500 to 5000 nM, less than 500 nM and less than 500 nM, respectively.
As to `CN(CCO)c1cccc(-c2c(Cl)cnc3[nH]ccc23)n1` [compound 77], the Ki at ROCK I is 500 to 5000 nM; on JAK2, less than 500 nM; on JAK3, less than 500 nM.
For the compound `CC(C)CNc1cccc(-c2c(Cl)cnc3[nH]ccc23)n1` [compound 78, 6-(5-Chloro-1H-pyrrolo[2,3-b]pyridin-4-yl)-N-isobutylpyridin-2-anine], the Ki at ROCK I, at JAK2 and at JAK3 was 500 to 5000 nM in each case.
In the case of `Clc1cnc2[nH]ccc2c1-c1cccc(N2CCCC2)n1` [compound 79, 5-Chloro-4-(6-(pyrrolidin-1-yl)pyridine-2-yl)-1H-pyrrolo[2,3-b]pyridine], the Ki at ROCK I, on JAK2 and at JAK3 was 500 to 5000 nM each time.
As for `Clc1cnc2[nH]ccc2c1-c1cn[nH]c1` [compound 80, 5-Chloro-4-(1H-pyrazol-4-yl)-1H-pyrrolo[2,3b]pyridine], the Ki on ROCK I was 500 to 5000 nM; on JAK2 it was less than 500 nM; at JAK3 it was less than 500 nM.
Take `O=C(O)c1cc(-c2c(Cl)cnc3[nH]ccc23)c[nH]1` [compound 81, 4-(5-Chloro-1H-pyrrolo[2,3b]pyridin-4-yl)-1H-pyrrole-2-carboxylic acid]: the Ki on ROCK I is 500 to 5000 nM; at JAK2, less than 500 nM; on JAK3 it was less than 500 nM.

The values are drawn from patent publication US8921376B2, “Pyrrolopyridines useful as inhibitors of protein kinase” (Vertex Pharmaceuticals Incorporated, priority 2005, dated 2014).
